Measurements from patent US7907999B2, “Apparatus and method for measuring physiological characteristics of an intact trachea in vitro” (priority 2006, dated 2011).

Legend:
[1] = tested on: epithelium of intact trachea; experiment: Transepithelial potential difference (Vt) and impedance (Rt) of intact perfused trachea in vitro; parameters: species or system Hartley guinea pigs; settings: for effect on transepithelial impedance (Rt) / effect on transepithelial potential difference (Vt): intact guinea pig tracheal segment, each agent tested four times; for effect on transepithelial impedance (Rt): current pulses 20 μA; for effect on transepithelial impedance (Rt) / effect on Vt, summary of bar graphs (on average): agent concentration and bath as in Tables 1 and 2; for effect on transepithelial potential difference (Vt): open-circuit, 37° C., agent concentration and bath (intraluminal/extraluminal) as in Tables 1 and 2; for effect on Vt, summary of bar graphs (on average): means of four preparations
Excerpt: Under open circuit conditions, the first current electrode 60 (FIG. 1) introduces an electrical current into the perfusion liquid flowing into the perfusion device 12. The electrical current flows into the perfusion device, where it emanates from the inlet portion 64 (FIG. 7) and flows across the trachea wall to the second current electrode 62. The first voltage-sensing electrode 56 (FIG. 1) is in electrically continuity with the perfusion liquid in the trachea 14 (via cannula 78, tube 100, and conduits 38 and 46) and therefore senses the electrical potential inside the trachea. The second voltage-sensing electrode 58 senses the electrical potential in the extraluminal bath 54 outside of the trachea. The amplifier 18 calculates the electrical potential difference between the voltage-sensing electrodes 56, 58, which represents the transepithelial potential difference of the trachea. The amplifier 18 can also calculate the transepithelial impedance across the trachea wall based on the applied current and the measured potential difference. […] Hartley guinea pigs were anesthetized by i.p. injection of sodium pentobarbital (65 mg/kg). A 4.2-cm tracheal segment was removed and mounted on a perfusion device 12 at its in situ length. The perfusion device was placed in an extraluminal bath containing a modified Krebs-Henseleit […] solution, and was perfused at 24 ml/min with MKH solution from an intraluminal bath. Water was used as a heat transfer fluid and was supplied to the heat exchanger 20 and the outer jackets of vessels 26, 28 to maintain the temperature of the extraluminal and intraluminal baths at about 37° C. Current pulses (20 μA, 5 s duration, 50 s intervals) were delivered through the current electrodes, while the changes in the transepithelial potential difference (Vt) caused by the current pulses were monitored under open-circuit conditions. Alternatively, and as mentioned above, voltage pulses can be applied across the voltage electrodes under voltage-clamp conditions, while the changes in short circuit current are monitored. The preparation was equilibrated for 2.5 hours to allow Vt and the pressure drop (ΔP) to stabilize before the current pulses were delivered. Basal Vt (the transepithelial voltage in the basal, or steady, state of an unstimulated epithelium) was 14.8±0.8 mV. […] To determine the effects of relaxant agents, when the mechanical and bioelectric responses reached their plateau responses to MCh, the trachea was treated with agents added to the extraluminal or intraluminal bath. The agents used in this example are described in tables 1 and 2 below. The effects of the agents were analyzed statistically using student's paired t-test. P<0.05 was accepted as significant, and is indicated by an asterisk in FIGS. 8-15. The results are presented as means±SE. Each agent was tested four times. Amiloride, NPPB and bumetanide were dissolved in dimethyl sulfoxide (DMSO) (with a final concentration equal to or less than 0.04%). The other agents were prepared in MKH. Terbutaline, histamine, ouabain and bumetanide were added to the extraluminal bath; the other agents were added to the intraluminal bath. Hypersmolar solutions were prepared by adding osmolytes to MKH solution.

[2] = tested on: smooth muscle of intact trachea; experiment: Pressure drop (ΔP) of perfusion liquid through intact trachea: smooth muscle contraction/relaxation; parameters: species or system Hartley guinea pigs; settings: for effect on differential pressure (ΔP), smooth muscle contraction or relaxation: intact guinea pig tracheal segment perfused at 24 ml/min, agent concentration and bath as in Tables 1 and 2, relaxation observed after pre-contraction with MCh
Excerpt: As described above, the first port 50 of the differential pressure transducer 16 is in fluid communication with the openings 82 in the first cannula 78 and the second port 52 of the differential pressure transducer 16 is in fluid communication with the openings 88 in the second cannula 84. As a result, the differential pressure transducer 16 “sees” the pressure of the perfusion liquid flowing through the trachea 14 at the openings 82 and 88 and can calculate the pressure drop (ΔP) of the perfusion liquid between these two locations (as depicted in FIG. 7). […] Hartley guinea pigs were anesthetized by i.p. injection of sodium pentobarbital (65 mg/kg). A 4.2-cm tracheal segment was removed and mounted on a perfusion device 12 at its in situ length. The perfusion device was placed in an extraluminal bath containing a modified Krebs-Henseleit […] solution, and was perfused at 24 ml/min with MKH solution from an intraluminal bath. Water was used as a heat transfer fluid and was supplied to the heat exchanger 20 and the outer jackets of vessels 26, 28 to maintain the temperature of the extraluminal and intraluminal baths at about 37° C. Current pulses (20 μA, 5 s duration, 50 s intervals) were delivered through the current electrodes, while the changes in the transepithelial potential difference (Vt) caused by the current pulses were monitored under open-circuit conditions. Alternatively, and as mentioned above, voltage pulses can be applied across the voltage electrodes under voltage-clamp conditions, while the changes in short circuit current are monitored. The preparation was equilibrated for 2.5 hours to allow Vt and the pressure drop (ΔP) to stabilize before the current pulses were delivered. Basal Vt (the transepithelial voltage in the basal, or steady, state of an unstimulated epithelium) was 14.8±0.8 mV. […] To determine the effects of relaxant agents, when the mechanical and bioelectric responses reached their plateau responses to MCh, the trachea was treated with agents added to the extraluminal or intraluminal bath. The agents used in this example are described in tables 1 and 2 below. The effects of the agents were analyzed statistically using student's paired t-test. P<0.05 was accepted as significant, and is indicated by an asterisk in FIGS. 8-15. The results are presented as means±SE. Each agent was tested four times. Amiloride, NPPB and bumetanide were dissolved in dimethyl sulfoxide (DMSO) (with a final concentration equal to or less than 0.04%). The other agents were prepared in MKH. Terbutaline, histamine, ouabain and bumetanide were added to the extraluminal bath; the other agents were added to the intraluminal bath. Hypersmolar solutions were prepared by adding osmolytes to MKH solution.

`N=C(N)NC(=O)c1nc(Cl)c(N)nc1N` [amiloride, Amiloride] was tested, and the “effect on transepithelial impedance (Rt)” value [1] was “increase in Rt”, the “effect on transepithelial potential difference (Vt)” value [1] was “depolarization of the epithelium” and the “effect on differential pressure (ΔP), smooth muscle contraction or relaxation” value (“effect on differential pressure (ΔP)” for short) [2] was “Neither agent affected ΔP”.

With `O=C(O)c1cc([N+](=O)[O-])ccc1NCCCc1ccccc1` [NPPB] the “effect on transepithelial impedance (Rt)” value [1] was “negligible effect on Rt”, the “effect on transepithelial potential difference (Vt)” value [1] was “depolarization caused by NPPB was slower to develop and greater in magnitude” and the “effect on differential pressure (ΔP)” value [2] was “Neither agent affected ΔP”.

`CCCCNc1cc(C(=O)O)cc(S(N)(=O)=O)c1Oc1ccccc1` [Bumetanide] was tested, and the “effect on transepithelial impedance (Rt)” value [1] was “did not effect Rt”, the “effect on transepithelial potential difference (Vt)” value [1] was “depolarization” and the “effect on differential pressure (ΔP)” value [2] was “small degree of relaxation of the trachea”.

For `OC[C@@H](O)[C@@H](O)[C@H](O)[C@H](O)CO` [D-M, D-mannitol], the “effect on transepithelial impedance (Rt)” value [1] was “increased Rt”, the “effect on transepithelial potential difference (Vt)” value [1] was “depolarization” and the “effect on differential pressure (ΔP)” value [2] was “relaxation”.

With `NCCc1c[nH]cn1` [Histamine] the “effect on transepithelial impedance (Rt)” value [1] was “did not effect Rt”, the “effect on transepithelial potential difference (Vt)” value [1] was “variable Vt responses” and the “effect on Vt, summary of bar graphs (on average)” value (“effect on Vt, summary” for short) [1] was “did not effect Vt appreciably”. The “effect on differential pressure (ΔP)” value [2] was “contraction”.

In the case of `CC(C)(C)NCC(O)c1cc(O)cc(O)c1` (centres unmarked) [Terbutaline], the “effect on transepithelial impedance (Rt)” value [1] is reported as “did not effect Rt”, the “effect on transepithelial potential difference (Vt)” value [1] is reported as “transient depolarization in three of the four preparations followed by slow hyperpolarization” and the “effect on Vt, summary” value [1] is reported as “did not effect Vt appreciably”. For the same molecule, the “effect on differential pressure (ΔP)” value [2] was “relaxation”.

`[Cl-].[Na+]` [NaCl] was tested, and the “effect on transepithelial impedance (Rt)” value [1] was “decreased Rt”, the “effect on transepithelial potential difference (Vt)” value [1] was “depolarization” and the “effect on differential pressure (ΔP)” value [2] was “relaxation”.

With `C[C@@H]1O[C@@H](O[C@H]2C[C@@H](O)[C@]3(CO)[C@H]4[C@H](O)C[C@]5(C)[C@@H](C6=CC(=O)OC6)CC[C@]5(O)[C@@H]4CC[C@]3(O)C2)[C@H](O)[C@H](O)[C@H]1O` [Ouabain] the “effect on transepithelial impedance (Rt)” value [1] was “decrease in Rt”, the “effect on transepithelial potential difference (Vt)” value [1] was “immediate depolarization” and the “effect on Vt, summary” value [1] was “complete”. The “effect on differential pressure (ΔP)” value [2] was “delayed contraction of the trachea”.

`CC(=O)OC(C)C[N+](C)(C)C` (centres unmarked) [methacholine] was tested, and the “effect on transepithelial potential (Vt) during pre-contraction” value ([1]; MCh 3×10^−7M in the extraluminal bath) was “induced transepithelial hyperpolarization” and the EC50 ([2]; Cavia porcellus, methacholine in the extraluminal bath, read-out: EC50 for pre-contracting the trachea) was 300 nM.
